We go through two compounds from US20120083486A1, “KIT, COMPOSITION, PRODUCT OR MEDICAMENT FOR TREATING COGNITIVE IMPAIRMENT” (ZENYAKU KOGYO KABUSHIKIKAISHA, priority 2008, published 2012).

For test [1], the system named is extracellular levels of acetylcholine (ACh) in a rat hippocampus. Put plainly: extracellular levels of acetylcholine (ACh) in rat hippocampus (microdialysis, HPLC-ECD). The conditions noted are these: alone, compared with 1% CMC group. The class given is in vivo. As for the experimental part: Food and water were provided ad libitum. All animal care and treatment was conducted in accordance with the Guidelines for the Care and Use of Laboratory Animals, established at the Central Research Laboratory, Zenyaku Kogyo Co., Ltd.

Test [2] relates to scopolamine-induced cognitive impairment. The test can be described thus: passive avoidance task, scopolamine-induced cognitive impairment in mice. In kind it is in vivo. Conditions: alone, compared with 1% CMC and scopolamine group. As for the experimental part:
Eight to nine week old male ICR strain mice (Charles River Laboratories Japan, Inc.) were used in the experiment. They were housed in a cage in groups of 3 or 4 mice, in a room maintained at around 22 degree C. under 12 hour light/dark cycles. Food and water were provided ad libitum. All animal care and treatment was conducted in accordance with the Guidelines for the Care and Use of Laboratory Animals, established at the Central Research Laboratory, Zenyaku Kogyo Co., Ltd.
Compound 1 and donepezil were suspended in 1% carboxymethyl cellulose (CMC). […] For the coadministration studies of Compound 1 and donepezil, both drug suspensions were mixed together and this mixed suspension was […]. All drugs were prepared immediately before use and orally administered at a dosage of 10 ml/kg.
The passive avoidance apparatus (Neuroscience Inc.) consisted of an illuminated chamber and a larger dark chamber. Two chambers were separated by a guillotine door. Oral administration of compound 1 at doses of 0.0001 mg/kg or 0.001 mg/kg and/or donepezil at doses of 0.01 and 0.1 mg/kg was given 60 min before the acquisition trial. […] The matched control group only received the vehicle. During the acquisition trial, each mouse was placed in the illuminated chamber. Immediately after the entry into the dark chamber, the door was closed and an inescapable scrambled electric shock (100 V, 0.4 mA, 1.5 sec) was delivered through the floor grid. Twenty-four hours later, each mouse was placed in the illuminated chamber for retention trial. The interval between placement in the illuminated chamber and entry into the dark chamber was measured as step through latency (maximum 300 seconds).
A P level of <0.05 was considered indicative of statistical significance for the tests.

Take `O=C1N=C2C=CC=CN2C12Cc1ccccc1C2` [compound 1, spiro[imidazo[1,2-a]pyridin-2(3H)-one-3,2′-indan]]: the “extracellular level of ACh in the hippocampus” value in test [1] (compound 1 0.001 mg/kg oral) is “did not significantly increase”. The “step-through latency in retention trial” value in test [2] (compound 1 0.0001 mg/kg oral) was “did not significantly prolong the step-through latency”; in test [2] (compound 1 0.001 mg/kg oral, P<0.05), “prolonged the step-through latency”.
Take `COc1cc2c(cc1OC)C(=O)C(CC1CCN(Cc3ccccc3)CC1)C2` (stereo not drawn) [donepezil]: the “extracellular level of ACh in the hippocampus” value in test [1] (donepezil 1 mg/kg oral) is recorded as “did not significantly increase”. Moreover, the “step-through latency in retention trial” value is on record as “did not significantly prolong the step-through latency” in test [2] (donepezil 0.01 mg/kg oral) and “prolonged the step-through latency” in test [2] (donepezil 0.1 mg/kg oral, P<0.05).
